From patent US20210317140A1, “Heterocyclic Compounds and Methods of Use” (MEDIVATION TECHNOLOGIES, INC, priority 2013, published 2021)

Tests used:
BTK = target: T1, BTK (Homo sapiens, UniProt Q06187); test: BTK kinase assay (HotSpot, 33P ATP); assay type: biochemical; conditions: for IC50: 10 dose IC50, 10 μM ATP; for BTK @ 0.01 μM (% Inh): 0.01 μM compound; for BTK @ 0.01 μM (% Inh) / BTK @ 0.1 μM (% Inh) / BTK @ 1 μM (% Inh): 10 μM ATP; for BTK @ 0.1 μM (% Inh): 0.1 μM compound; for BTK @ 1 μM (% Inh): 1 μM compound
T1 construct: purchased Reaction Biology Corporation
In short: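 In 20 mM Hepes (pH 7.5) with 10 mM MgCl2, 1 mM EGTA, 0.1 mM Na3VO4, 2 mM DTT, 0.02% Brij35, 0.02 mg/mL BSA and 1% DMSO, kinase and substrate were exposed to ten compound doses for 15–20 min.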

CD69+B220+ cells = test: B cell activation assay (IgD-stimulated splenocytes, CD69+B220+ cells by FACS); assay type: cell-based; conditions: IgD 3 μg/mL, 4 h; for CD69 @ 100 nM (% Inh): 100 nM compound, mouse splenocytes
Procedure: 1 Female mouse approximately 2 months old was euthanized with CO2 and the spleen removed. The tissue was homogenized with a polished glass microscope slide. The cells were collected in 5 mL complete medium (RPMI+10% FBS+pen/strep), placed in a 15 mL falcon tube and centrifuged at 500×g for 5 min. The supernatant was discarded and the pellet was resuspended in 3 mL of ACK lysis buffer (NH4Cl 0.17M, KHCO3 10 mM, EDTA-Na2 0.1 mM, pH 7.2), incubated at 37° C. for 5 min. 2 mL complete medium was added and the mixture centrifuged at 500×g for 5 min. The supernatant was discarded and the pellet resuspended in 1 mL complete medium. The mixture was passed through a […] cell strainer and collect in 50 mL falcon tube. Enough medium was added to have a total of 10 mL. The cells were counted and seeded in 24 or 48-well plate in 1 mL complete medium at 10^6 cells/mL. The plate was placed in a 37° C. incubator for 15 min. The cells were treated for 30 min at 37° C. with 100 nM test compound dissolved in 100% DMSO. 3 μL IgD (Accurate chemical and scientific corp.) was added at a final concentration of 3 μg/mL and the mixture incubated at 37° C. for 4 h. The cells were collected in 1.5 mL eppendorf tubes, centrifuged at 500×g for 5 min and then resuspended in 100 μL of PBS+2% FBS. The following antibodies were added: α-B220 PE (pharmingen #553090), α-CD69 APC (pharmingen #60689), live/dead fixable aqua dead cell stain kit (life technologies #L34957) all at 1:300, and the mixture incubated for 15 min at 4° C. in the dark. To this was added 900 μL of PBS+2% FBS and the mixture centrifuged at 500×g for 5 min. The supernatant was removed and the pellet resuspended in 300 μL of PBS+2% FBS and mixed well. The mixture was transferred to a cytometer tube. The samples were run in the FACS Canto II cytometer and quantified by the number of CD69+B220+ cells as a percentage of the total number of B220+ alive cells.

PI3Kδ = target: T2, PI3Kδ (Homo sapiens, UniProt O00329); test: PI3Kδ kinase assay (HTRF, PIP3 detection); assay type: biochemical; conditions: for IC50: 10 dose IC50, 10 μM ATP; for PI3Kδ @ 0.01 μM (% Inh): 0.01 μM compound; for PI3Kδ @ 0.01 μM (% Inh) / PI3Kδ @ 0.1 μM (% Inh) / PI3Kδ @ 1 μM (% Inh): 10 μM ATP; for PI3Kδ @ 0.1 μM (% Inh): 0.1 μM compound; for PI3Kδ @ 1 μM (% Inh): 1 μM compound
T2 construct: purchased Reaction Biology Corporation
In short: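 10-dose HTRF assay; kinase preincubated with compound 10 min at RT, then reacted with 10 μM PIP2 and 10 μM ATP for 30 min at 30 °C in HEPES pH 7.0 buffer. PIP3 product displaces biotin-PIP3 from the Eu/APC complex; signal converted to PIP3 via standard curve, IC50 by nonlinear regression.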

T1 sequence (Q06187 whole entry): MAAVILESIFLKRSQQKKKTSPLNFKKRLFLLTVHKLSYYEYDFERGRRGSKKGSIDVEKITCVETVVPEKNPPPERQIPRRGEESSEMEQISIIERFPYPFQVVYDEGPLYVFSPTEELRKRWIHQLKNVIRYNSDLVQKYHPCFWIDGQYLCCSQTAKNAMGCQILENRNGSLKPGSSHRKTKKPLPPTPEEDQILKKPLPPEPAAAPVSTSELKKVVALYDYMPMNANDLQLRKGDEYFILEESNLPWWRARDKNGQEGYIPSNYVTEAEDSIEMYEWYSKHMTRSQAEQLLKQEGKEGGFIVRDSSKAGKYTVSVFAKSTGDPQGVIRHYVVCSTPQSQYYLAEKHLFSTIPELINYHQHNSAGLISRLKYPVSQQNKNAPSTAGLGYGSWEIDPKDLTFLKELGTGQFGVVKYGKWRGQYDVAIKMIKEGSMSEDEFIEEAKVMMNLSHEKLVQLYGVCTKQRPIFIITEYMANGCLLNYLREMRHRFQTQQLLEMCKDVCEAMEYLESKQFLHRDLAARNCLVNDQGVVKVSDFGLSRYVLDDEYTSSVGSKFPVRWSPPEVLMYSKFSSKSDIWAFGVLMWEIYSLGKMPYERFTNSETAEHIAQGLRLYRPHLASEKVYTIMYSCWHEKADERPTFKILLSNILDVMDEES
T2 sequence (O00329 whole entry): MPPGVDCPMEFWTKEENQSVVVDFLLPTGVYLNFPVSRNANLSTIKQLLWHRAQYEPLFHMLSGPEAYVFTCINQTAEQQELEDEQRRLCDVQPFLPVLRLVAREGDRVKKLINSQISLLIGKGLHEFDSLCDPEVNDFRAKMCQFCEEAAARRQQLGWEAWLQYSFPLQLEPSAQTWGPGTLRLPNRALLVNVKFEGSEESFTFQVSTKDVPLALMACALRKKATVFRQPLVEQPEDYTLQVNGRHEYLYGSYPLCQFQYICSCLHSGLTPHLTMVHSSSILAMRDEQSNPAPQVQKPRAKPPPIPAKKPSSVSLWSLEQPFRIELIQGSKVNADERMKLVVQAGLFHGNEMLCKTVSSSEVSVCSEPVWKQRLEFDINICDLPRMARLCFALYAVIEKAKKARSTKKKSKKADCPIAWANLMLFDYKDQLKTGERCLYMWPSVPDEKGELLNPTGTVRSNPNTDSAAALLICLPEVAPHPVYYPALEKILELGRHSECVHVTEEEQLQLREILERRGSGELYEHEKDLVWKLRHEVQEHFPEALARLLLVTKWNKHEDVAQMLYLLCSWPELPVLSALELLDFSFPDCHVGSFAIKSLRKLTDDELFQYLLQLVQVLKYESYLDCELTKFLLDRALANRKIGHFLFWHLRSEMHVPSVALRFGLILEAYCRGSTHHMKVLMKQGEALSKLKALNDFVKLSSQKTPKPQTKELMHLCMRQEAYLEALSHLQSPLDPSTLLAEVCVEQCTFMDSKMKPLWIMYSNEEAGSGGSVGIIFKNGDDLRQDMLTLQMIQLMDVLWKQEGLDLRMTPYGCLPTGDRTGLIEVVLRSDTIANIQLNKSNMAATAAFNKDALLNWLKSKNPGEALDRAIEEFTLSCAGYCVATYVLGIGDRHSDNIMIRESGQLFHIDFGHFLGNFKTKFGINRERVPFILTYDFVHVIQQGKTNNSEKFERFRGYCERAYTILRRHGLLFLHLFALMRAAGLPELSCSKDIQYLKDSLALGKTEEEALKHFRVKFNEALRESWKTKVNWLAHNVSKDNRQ
T2 sequence (P27986 whole entry partner): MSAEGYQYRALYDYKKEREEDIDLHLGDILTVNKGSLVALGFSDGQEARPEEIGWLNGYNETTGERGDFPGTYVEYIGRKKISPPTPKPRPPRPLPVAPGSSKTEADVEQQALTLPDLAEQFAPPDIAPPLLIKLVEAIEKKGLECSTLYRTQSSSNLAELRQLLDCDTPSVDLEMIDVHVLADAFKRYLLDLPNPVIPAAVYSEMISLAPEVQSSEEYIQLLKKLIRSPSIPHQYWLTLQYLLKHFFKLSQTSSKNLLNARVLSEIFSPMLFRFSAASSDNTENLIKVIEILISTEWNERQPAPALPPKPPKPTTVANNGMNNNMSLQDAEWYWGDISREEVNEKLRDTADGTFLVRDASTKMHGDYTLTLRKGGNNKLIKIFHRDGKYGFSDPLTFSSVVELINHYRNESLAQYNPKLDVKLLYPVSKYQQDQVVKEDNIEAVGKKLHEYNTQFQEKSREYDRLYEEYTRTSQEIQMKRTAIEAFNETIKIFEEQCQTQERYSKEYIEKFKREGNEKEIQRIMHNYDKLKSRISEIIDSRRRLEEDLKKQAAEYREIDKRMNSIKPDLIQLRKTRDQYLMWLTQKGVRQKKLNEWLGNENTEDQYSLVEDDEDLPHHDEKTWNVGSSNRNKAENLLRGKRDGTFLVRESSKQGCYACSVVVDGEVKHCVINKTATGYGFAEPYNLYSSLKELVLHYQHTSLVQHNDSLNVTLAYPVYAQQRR

SMILES	IC50 (BTK) [nM]	IC50 (PI3Kδ) [nM]	BTK @ 0.01 μM (% Inh) (BTK)	BTK @ 0.1 μM (% Inh) (BTK)	PI3Kδ @ 0.01 μM (% Inh) (PI3Kδ)	PI3Kδ @ 0.1 μM (% Inh) (PI3Kδ)	CD69 @ 100 nM (% Inh) (CD69+B220+ cells)	CD69 @ 100 nM (% Inh) (CD69+B220+ cells; 0.1 µM)	BTK @ 1 μM (% Inh) (BTK)	PI3Kδ @ 1 μM (% Inh) (PI3Kδ)	IC50 (CD69+B220+ cells; Mus musculus, Splenocyte) [nM]
C=CC(=O)N1CC(n2nc(-c3cc(O)cc(F)c3)c3c(N)ncnc32)Cc2cc(C)ccc21 (single isomer, unassigned) [31a, 1-(3-(4-amino-3-(3-fluoro-5-hydroxyphenyl)-1H-pyrazolo[3,4-d]pyrimidin-1-yl)-6-methyl-3,4-dihydroquinolin-1(2H)-yl)prop-2-en-1-one]	9.5	27.7	67.39	93.84	33.04	68.13		15.47 ± 13.75 (n = 8) % Inh			
Nc1ncnc2c1c(-c1cc(O)cc(Cl)c1)nn2C1Cc2ccccc2C1 [Compound No. 67, 3-[4-amino-1-(2,3-dihydro-1H-inden-2-yl)-1H-pyrazolo[3,4-d]pyrimidin-3-yl]-5-chlorophenol]	142	4.1		43.63		84.5	65.11 ± 18.09 (n = 6) % Inh		87.64	90.92	109 ± 57
Nc1ncnc2c1c(-c1cc(O)c(F)c(F)c1)nn2C1Cc2cc(F)ccc2C1=O (stereo not shown) [compound 127, 2-[4-amino-3-(3,4-difluoro-5-hydroxyphenyl)-1H-pyrazolo[3,4-d]pyrimidin-1-yl]-5-fluoro-2,3-dihydro-1H-inden-1-one]			9.24	21.87	16.23	51.48					
Nc1ncnc2c1c(-c1cc(O)c(F)c(F)c1)c(Cl)n2C1Cc2ccccc2C1 [compound 134, 5-[4-amino-6-chloro-7-(2,3-dihydro-1H-inden-2-yl)-7H-pyrrolo[2,3-d]pyrimidin-5-yl]-2,3-difluorophenol]			17.28	74.7	−6.1	56.02					
N#Cc1c(-c2cc(O)c(F)c(F)c2)c2c(N)ncnc2n1C1Cc2ccccc2C1 [compound 135, 4-amino-5-(3,4-difluoro-5-hydroxyphenyl)-7-(2,3-dihydro-1H-inden-2-yl)-7H-pyrrolo[2,3-d]pyrimidine-6-carbonitrile]			51.3	88.59	51.74	84.33					
Nc1ncnc2c1c(-c1cc(O)c(F)c(F)c1)c(F)n2C1Cc2ccccc2C1 [compound 136, 5-[4-amino-7-(2,3-dihydro-1H-inden-2-yl)-6-fluoro-7H-pyrrolo[2,3-d]pyrimidin-5-yl]-2,3-difluorophenol]			72.51	93.64	38.49	80.15					
Nc1ncnc2c(C3Cc4ccccc4C3)cn(-c3cc(O)c(F)c(F)c3)c12 [compound 137, 5-[4-amino-7-(2,3-dihydro-1H-inden-2-yl)-5H-pyrrolo[3,2-d]pyrimidin-5-yl]-2,3-difluorophenol]			87.65	96.31	6.28	45.54					
Nc1nccn2c(C3Cc4ccccc4C3)nc(-c3cc(O)c(F)c(F)c3)c12 [compound 140, 5-[8-amino-3-(2,3-dihydro-1H-inden-2-yl)imidazo[1,5-a]pyrazin-1-yl]-2,3-difluorophenol]			83.98	96.04	31.54	79.18					

The next lines start with results.

IC50 (BTK) [nM]	IC50 (PI3Kδ) [nM]	BTK @ 0.01 μM (% Inh) (BTK)	BTK @ 0.1 μM (% Inh) (BTK)	PI3Kδ @ 0.01 μM (% Inh) (PI3Kδ)	PI3Kδ @ 0.1 μM (% Inh) (PI3Kδ)	SMILES	CD69 @ 100 nM (% Inh) (CD69+B220+ cells)	CD69 @ 100 nM (% Inh) (CD69+B220+ cells; 0.1 µM)	BTK @ 1 μM (% Inh) (BTK)	PI3Kδ @ 1 μM (% Inh) (PI3Kδ)	IC50 (CD69+B220+ cells; Mus musculus, Splenocyte) [nM]
565	67					COc1ccc(-c2nn(C3CCc4ccccc4C3)c3ncnc(N)c23)cn1 (racemic) [compound 15, 3-(6-methoxypyridin-3-yl)-1-(1,2,3,4-tetrahydronaphthalen-2-yl)-1H-pyrazolo[3,4-d]pyrimidin-4-amine]	−0.75 ± 6.93 (n = 3) % Inh				
190	1		26.99		34.17	Nc1ncnc2c1c(-c1ccc(Br)c(O)c1)nn2C1CCc2ccccc21 (single isomer, unassigned) [36a, 5-[4-amino-1-(2,3-dihydro-1H-inden-1-yl)-1H-pyrazolo[3,4-d]pyrimidin-3-yl]-2-bromophenol]	1.63 ± 7.31 (n = 3) % Inh		72.83	76.31	
1590	25.4					COc1ccc(-c2nn(C3CCc4ccccc4C3)c3ncnc(N)c23)cc1F (single isomer, unassigned) [Compound No. 14b, 3-(3-fluoro-4-methoxyphenyl)-1-(1,2,3,4-tetrahydronaphthalen-2-yl)-1H-pyrazolo[3,4-d]pyrimidin-4-amine]	24.20 ± 12.24 (n = 6) % Inh				
1210	14.8					Nc1ncnc2c1c(-c1ccc3[nH]cnc3c1)nn2C1CCc2ccccc2C1 (single isomer, unassigned) [Compound No. 19a, 3-(1H-benzo[d]imidazol-5-yl)-1-(1,2,3,4-tetrahydronaphthalen-2-yl)-1H-pyrazolo[3,4-d]pyrimidin-4-amine]		24.62 ± 10.79 (n = 6) % Inh			
1270	6.4					Nc1ncnc2c1c(-c1ccc3[nH]cnc3c1)nn2C1CCc2ccccc2C1 (single isomer, unassigned) [Compound No. 19b, 3-(1H-benzo[d]imidazol-5-yl)-1-(1,2,3,4-tetrahydronaphthalen-2-yl)-1H-pyrazolo[3,4-d]pyrimidin-4-amine]		36.67 ± 6.35 (n = 6) % Inh			
154	34.7	12.89	43.43	35.56	59.95	COc1cc(-c2nn(C3Cc4ccccc4C3)c3ncnc(N)c23)ccc1O [Compound No. 85, 4-[4-amino-1-(2,3-dihydro-1H-inden-2-yl)-1H-pyrazolo[3,4-d]pyrimidin-3-yl]-2-methoxyphenol]	24.82 ± 9.20 (n = 3) % Inh				
		−7.89	−6.05	−2.71	5.54	NCc1ccc(-c2nn(C3Cc4ccccc4C3)c3ncnc(N)c23)cc1 [compound 138, 3-[4-(aminomethyl)phenyl]-1-(2,3-dihydro-1H-inden-2-yl)-1H-pyrazolo[3,4-d]pyrimidin-4-amine]					
		80.96	95.07	65.26	90.95	Nc1ccc2c(c1)CC(n1nc(-c3cc(O)c(F)c(F)c3)c3c(N)ncnc31)C2 (stereo not shown) [compound 139, 5-[4-amino-1-(5-amino-2,3-dihydro-1H-inden-2-yl)-1H-pyrazolo[3,4-d]pyrimidin-3-yl]-2,3-difluorophenol]					
